Measurements as given in patent US11279733B2, “Peptide antibiotics” (priority 2017, dated 2022).
≈ marks a conversion by molar mass, not a printed value. Where two headings read alike, the source gives them in different places. Positions of bridges follow the written chain, without caps; N, C: chain ends. Non-standard residues stand in square brackets, D forms with d. Residues, ends and D or L forms follow the SMILES beside them. *: point of attachment. dPhe(4-CN) = N#Cc1ccc(C[C@@H](N)C(=O)O)cc1; Benzoyl(4-Ph) = O=C(c1ccc(-c2ccccc2)cc1)*; Decanoyl(3R-OH) = CCCCCCC[C@@H](O)CC(=O)*; dPhe(4-F) = N[C@H](Cc1ccc(F)cc1)C(=O)O; d2Nal = N[C@H](Cc1ccc2ccccc2c1)C(=O)O; d(hPhe) = N[C@H](CCc1ccccc1)C(=O)O; Ala(cPr) = N[C@@H](CC1CC1)C(=O)O; dDab = NCC[C@@H](N)C(=O)O; Dab = NCC[C@H](N)C(=O)O

Columns and labels:
A. baumannii ATCC 19606 = settings: ATCC 19606
How it was run: (§1)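 Mid-log cultures grown in Mueller Hinton broth at 37° C were tested by 2-fold broth microdilution at 5×10^5 CFU/mL final. Compounds were dissolved in water and tested over a final range of 32 to 0.015 μg/mL.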

A. baumannii GN_093 PmxR = settings: GN 093 PmxR
How it was run: as §1

E. coli ATCC 25922 = settings: ATCC 25922
How it was run: as §1

K. pneumoniae ATCC 13883 = settings: ATCC 13883
How it was run: as §1

[1] = tested on: K. pneumoniae ATCC 700603, MDR; settings: ATCC 700603
How it was run: as §1

[2] = tested on: K. pneumoniae ATCC BAA-2146, NDM-1 pos; settings: ATCC BAA-2146
How it was run: as §1

[3] = tested on: K. pneumoniae GN_102 PmxR; settings: GN 102 PmxR
How it was run: as §1

[4] = tested on: K. pneumoniae GN_106, PmxR; settings: GN 106, PmxR
How it was run: as §1

P. aeruginosa ATCC 27853 = settings: ATCC 27853
How it was run: as §1

[5] = tested on: P. aeruginosa GN_043, PmxR
How it was run: as §1

[6] = tested on: P. aeruginosa GN_105, PmxR; settings: GN 105, PmxR
How it was run: as §1

[7] = tested on: S. aureus ATCC 25923, MSSA; settings: ATCC 25923
How it was run: as §1

in vitro = settings: human
How it was run: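 Viability is measured by resazurin reduction (5 μM, 2 h, 37 °C) after cells seeded at 4000 per well are treated with compound for 24 h.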

SMILES	MIC A. baumannii ATCC 19606 (A. baumannii ATCC 19606)	MIC A. baumannii GN_093 PmxR (A. baumannii GN_093 PmxR)	MIC E. coli ATCC 25922 (E. coli ATCC 25922)	MIC K. pneumoniae ATCC 13883 (K. pneumoniae ATCC 13883)	MIC K. pneumoniae ATCC 700603, MDR [1]	MIC K. pneumoniae ATCC BAA-2146, NDM-1 pos [2]	MIC K. pneumoniae GN_102 PmxR [3]	MIC K. pneumoniae GN_106, PmxR [4]	MIC P. aeruginosa ATCC 27853 (P. aeruginosa ATCC 27853)	MIC P. aeruginosa GN_105, PmxR [6]	MIC S. aureus ATCC 25923, MSSA [7]	CC50 at 24 h (in vitro)	MIC P. aeruginosa GN_043, PmxR ([5]; polymyxin-resistant)	also measured
CC(C)C[C@@H]1NC(=O)[C@H](CCN)NC(=O)[C@H](CCN)NC(=O)[C@H](CC(C)C)NC(=O)[C@@H](Cc2ccccc2)NC(=O)[C@H](CCN)NC(=O)[C@@H](NC(=O)[C@@H](CCN)NC(=O)c2ccc(-c3ccccc3)cc2)CCNC1=O [compound 6526, Ph-4-PhCO-D-Dab-cyc[L-Dab-L-Dab-D-Phe-L-Leu-L-Dab-L-Dab-L-Leu]] ({Benzoyl(4-Ph)}-[dDab][Dab][Dab][dF]L[Dab][Dab]L; lactam 2-C)	>32 µg/mL	>32 µg/mL	8 µg/mL (≈ 7.59 µM)	8 µg/mL (≈ 7.59 µM)	8 µg/mL (≈ 7.59 µM)	8 µg/mL (≈ 7.59 µM)	32 µg/mL (≈ 30.4 µM)	>32 µg/mL	2 µg/mL (≈ 1.9 µM)	4 µg/mL (≈ 3.79 µM)	>32 µg/mL	> 300 µM		MIC P. aeruginosa GN_043, PmxR [5]: 1 µg/mL (≈ 0.948 µM)
CCCCCCC[C@@H](O)CC(=O)N[C@H](CCN)C(=O)N[C@H]1CCNC(=O)[C@H](CC(C)C)NC(=O)[C@H](CCN)NC(=O)[C@H](CCN)NC(=O)[C@H](CC(C)C)NC(=O)[C@@H](Cc2ccccc2)NC(=O)[C@H](CCNC(=O)[C@@H](N)CCCNC(=N)N)NC1=O [compound 6655, 3(R)OH-nC9CO-D-Dab-cyc[L-Dab-L-Dab(L-Arg)-D-Phe-L-Leu-L-Dab-L-Dab-L-Leu]] ({Decanoyl(3R-OH)}-[dDab][Dab][Dab](Arg)[dF]L[Dab][Dab]L; lactam 2-C)												> 300 µM		MIC, A. baumannii ATCC 19606 (A. baumannii ATCC 19606): 32 µg/mL (≈ 26.7 µM); MIC, A. baumannii Cl Ptyela 10073 4512:2, PmxR (A. baumannii GN_093 PmxR): >32 µg/mL; MIC, E. coli ATCC 25922 (E. coli ATCC 25922): 8 µg/mL (≈ 6.66 µM); MIC, K. pneumoniae ATCC 13883 (K. pneumoniae ATCC 13883): 32 µg/mL (≈ 26.7 µM); MIC, K. pneumoniae ATCC 700603, MDR [1]: 8 µg/mL (≈ 6.66 µM); MIC, K. pneumoniae ATCC BAA-2146, NDM-1 pos [2]: 16 µg/mL (≈ 13.3 µM); MIC, K. pneumoniae Cl Koprana 10065 0661:1, PmxR [3]: 16 µg/mL (≈ 13.3 µM); MIC, K. pneumoniae Cl 138-16347-20362, PmxR [4]: >32 µg/mL; MIC, P. aeruginosa ATCC 27853 (P. aeruginosa ATCC 27853): 4 µg/mL (≈ 3.33 µM); MIC, P. aeruginosa FADDI-PA070, PmxR ([5]; Table 5, polymyxin-resistant): 4 µg/mL (≈ 3.33 µM); MIC, P. aeruginosa PA9704, PmxR [6]: 4 µg/mL (≈ 3.33 µM); MIC, S. Aureus ATCC 25923, MSSA [7]: 16 µg/mL (≈ 13.3 µM)
CCCCCCC[C@@H](O)CC(=O)N[C@H](CCN)C(=O)N[C@H]1CCNC(=O)[C@H](Cc2c[nH]c3ccccc23)NC(=O)[C@H](CCN)NC(=O)[C@H](CCN)NC(=O)[C@H](CC2CC2)NC(=O)[C@@H](Cc2ccccc2)NC(=O)[C@H](CCN)NC1=O [compound 8099, 3(R)OH-nC9CO-D-Dab-cyc[L-Dab-L-Dab-D-Phe-L-Ala(cycloprop)-L-Dab-L-Dab-L-Trp]] ({Decanoyl(3R-OH)}-[dDab][Dab][Dab][dF][Ala(cPr)][Dab][Dab]W; lactam 2-C)	8 µg/mL (≈ 7.17 µM)	16 µg/mL (≈ 14.3 µM)	8 µg/mL (≈ 7.17 µM)	8 µg/mL (≈ 7.17 µM)	8 µg/mL (≈ 7.17 µM)	4 µg/mL (≈ 3.59 µM)	4 µg/mL (≈ 3.59 µM)	4 µg/mL (≈ 3.59 µM)	2 µg/mL (≈ 1.79 µM)	>32 µg/mL	16 µg/mL (≈ 14.3 µM)	73 µM	2 µg/mL (≈ 1.79 µM)	
CCCCCCC[C@@H](O)CC(=O)N[C@H](CCN)C(=O)N[C@H]1CCNC(=O)[C@H](Cc2c[nH]c3ccccc23)NC(=O)[C@H](CCN)NC(=O)[C@H](CCN)NC(=O)[C@H](CC(C)C)NC(=O)[C@@H](Cc2ccc(C#N)cc2)NC(=O)[C@H](CCN)NC1=O [compound 8105, 3(R)OH-nC9CO-D-Dab-cyc[L-Dab-L-Dab-L-Dab-D-Phe(4-CN)-L-Leu-L-Dab-L-Dab-L-Trp]] ({Decanoyl(3R-OH)}-[dDab][Dab][Dab][dPhe(4-CN)]L[Dab][Dab]W; lactam 2-C)	8 µg/mL (≈ 7 µM)	16 µg/mL (≈ 14 µM)	4 µg/mL (≈ 3.5 µM)	8 µg/mL (≈ 7 µM)	8 µg/mL (≈ 7 µM)	4 µg/mL (≈ 3.5 µM)	4 µg/mL (≈ 3.5 µM)	8 µg/mL (≈ 7 µM)	2 µg/mL (≈ 1.75 µM)	2 µg/mL (≈ 1.75 µM)	4 µg/mL (≈ 3.5 µM)	107 µM	2 µg/mL (≈ 1.75 µM)	
CCCCCCC[C@@H](O)CC(=O)N[C@H](CCN)C(=O)N[C@H]1CCNC(=O)[C@H](Cc2c[nH]c3ccccc23)NC(=O)[C@H](CCN)NC(=O)[C@H](CCN)NC(=O)[C@H](CC(C)C)NC(=O)[C@@H](Cc2ccc3ccccc3c2)NC(=O)[C@H](CCN)NC1=O [compound 8113, 3(R)OH-nC9CO-D-Dab-cyc[L-Dab-L-Dab-L-Dab-D-Ala(2-Na)-L-Leu-L-Dab-L-Dab-L-Trp]] ({Decanoyl(3R-OH)}-[dDab][Dab][Dab][d2Nal]L[Dab][Dab]W; lactam 2-C)	8 µg/mL (≈ 6.85 µM)	8 µg/mL (≈ 6.85 µM)	8 µg/mL (≈ 6.85 µM)	4 µg/mL (≈ 3.43 µM)	8 µg/mL (≈ 6.85 µM)	8 µg/mL (≈ 6.85 µM)	8 µg/mL (≈ 6.85 µM)	8 µg/mL (≈ 6.85 µM)	8 µg/mL (≈ 6.85 µM)	4 µg/mL (≈ 3.43 µM)	4 µg/mL (≈ 3.43 µM)	28 µM	4 µg/mL (≈ 3.43 µM)	
CCCCCCC[C@@H](O)CC(=O)N[C@H](CCN)C(=O)N[C@H]1CCNC(=O)[C@H](Cc2c[nH]c3ccccc23)NC(=O)[C@H](CCN)NC(=O)[C@H](CCN)NC(=O)[C@H](CC(C)C)NC(=O)[C@@H](Cc2ccc(F)cc2)NC(=O)[C@H](CCN)NC1=O [compound 8119, 3(R)OH-nC9CO-D-Dab-cyc[L-Dab-L-Dab-L-Dab-D-Phe(4-F)-L-Leu-L-Dab-L-Dab-L-Trp]] ({Decanoyl(3R-OH)}-[dDab][Dab][Dab][dPhe(4-F)]L[Dab][Dab]W; lactam 2-C)	8 µg/mL (≈ 7.05 µM)	8 µg/mL (≈ 7.05 µM)	8 µg/mL (≈ 7.05 µM)	4 µg/mL (≈ 3.52 µM)	8 µg/mL (≈ 7.05 µM)	4 µg/mL (≈ 3.52 µM)	4 µg/mL (≈ 3.52 µM)	4 µg/mL (≈ 3.52 µM)	4 µg/mL (≈ 3.52 µM)	2 µg/mL (≈ 1.76 µM)	16 µg/mL (≈ 14.1 µM)	64 µM	2 µg/mL (≈ 1.76 µM)	
CCCCCCC[C@@H](O)CC(=O)N[C@H](CCN)C(=O)N[C@H]1CCNC(=O)[C@H](Cc2c[nH]c3ccccc23)NC(=O)[C@H](CCN)NC(=O)[C@H](CCN)NC(=O)[C@H](CC(C)C)NC(=O)[C@@H](Cc2c[nH]c3ccccc23)NC(=O)[C@H](CCN)NC1=O [compound 8127, 3(R)OH-nC9CO-D-Dab-cyc[L-Dab-L-Dab-L-Dab-D-Trp-L-Leu-L-Dab-L-Dab-L-Trp]] ({Decanoyl(3R-OH)}-[dDab][Dab][Dab][dW]L[Dab][Dab]W; lactam 2-C)	16 µg/mL (≈ 13.8 µM)	32 µg/mL (≈ 27.7 µM)	2 µg/mL (≈ 1.73 µM)	16 µg/mL (≈ 13.8 µM)	4 µg/mL (≈ 3.46 µM)	4 µg/mL (≈ 3.46 µM)	16 µg/mL (≈ 13.8 µM)	4 µg/mL (≈ 3.46 µM)	2 µg/mL (≈ 1.73 µM)	2 µg/mL (≈ 1.73 µM)	4 µg/mL (≈ 3.46 µM)	63 µM	2 µg/mL (≈ 1.73 µM)	
CCCCCCC[C@@H](O)CC(=O)N[C@H](CCN)C(=O)N[C@H]1CCNC(=O)[C@H](Cc2c[nH]c3ccccc23)NC(=O)[C@H](CCN)NC(=O)[C@H](CCN)NC(=O)[C@H](CC(C)C)NC(=O)[C@@H](CCc2ccccc2)NC(=O)[C@H](CCN)NC1=O [compound 8129, 3(R)OH-nC9CO-D-Dab-cyc[L-Dab-L-Dab-L-Dab-D-hPhe-L-Leu-L-Dab-L-Dab-L-Trp]] ({Decanoyl(3R-OH)}-[dDab][Dab][Dab][d(hPhe)]L[Dab][Dab]W; lactam 2-C)	4 µg/mL (≈ 3.54 µM)	4 µg/mL (≈ 3.54 µM)	2 µg/mL (≈ 1.77 µM)	4 µg/mL (≈ 3.54 µM)	4 µg/mL (≈ 3.54 µM)	4 µg/mL (≈ 3.54 µM)	4 µg/mL (≈ 3.54 µM)	4 µg/mL (≈ 3.54 µM)	2 µg/mL (≈ 1.77 µM)	2 µg/mL (≈ 1.77 µM)	2 µg/mL (≈ 1.77 µM)	37 µM	4 µg/mL (≈ 3.54 µM)	
